According to the supplement of paper PMC10307832:

Assays:
Assay in all cases: relative viability (nuclei count vs DMSO), 5 days (fraction); higher = more cells survive
[1] = compound: CCn1c(-c2nonc2N)nc2cnc(Oc3cccc(NC(=O)c4ccc(OCCN5CCOCC5)cc4)c3)cc21 + NC(=O)Nc1cc(-c2cccc(F)c2)sc1C(=O)N[C@H]1CCCNC1 [AZD7762] (partner 0.2 µM)
Procedure, shortened: (§1)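 Lung cancer cell lines, seeded in 1536-well plates, were treated the following day by pin tool with a single drug or with five library-drug doses (not always all listed) in √10 steps on top of a fixed anchor-drug dose. Cells were fixed and nuclei stained in one step after 5 days, and nuclei were counted. Relative viability is the nuclei count for treated wells divided by that for vehicle wells, reported as medians of duplicate plates.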

[2] = compound: CCC1=CN=CN=C1N2CCN(CC2)CC3=NC4=C(N3)C=C(C=C4)C(F)(F)F + CC(=O)c1c(C)c2cnc(Nc3ccc(N4CCNCC4)cn3)nc2n(C2CCCC2)c1=O [Palbociclib] (partner 0.5 µM)
Procedure, shortened: as §1

[3] = compound: CCC1=CN=CN=C1N2CCN(CC2)CC3=NC4=C(N3)C=C(C=C4)C(F)(F)F + Cc1nc(Nc2ncc(C(=O)Nc3c(C)cccc3Cl)s2)cc(N2CCN(CCO)CC2)n1 [Dasatinib] (partner 0.075 µM)
Procedure, shortened: as §1

[4] = compound: CCn1c(-c2nonc2N)nc2cnc(Oc3cccc(NC(=O)c4ccc(OCCN5CCOCC5)cc4)c3)cc21 + COc1cccc2cc(-c3nc([C@H]4CC[C@H](C(=O)O)CC4)n4ncnc(N)c34)[nH]c12 [OSI-027] (partner 0.5 µM)
Procedure, shortened: as §1

Cell Line	relative viability ([1]; first compound 0.04 µM)	relative viability ([1]; first compound 0.1265 µM)	relative viability ([1]; first compound 0.4 µM)	relative viability ([1]; first compound 1.265 µM)	relative viability ([1]; first compound 4 µM)	relative viability ([2]; first compound 0.04 µM)	relative viability ([2]; first compound 0.1265 µM)	relative viability ([2]; first compound 0.4 µM)	relative viability ([2]; first compound 1.265 µM)	relative viability ([2]; first compound 4 µM)	relative viability ([3]; first compound 0.04 µM)	relative viability ([3]; first compound 0.1265 µM)	relative viability ([3]; first compound 0.4 µM)	relative viability ([3]; first compound 1.265 µM)	relative viability ([3]; first compound 4 µM)	relative viability ([4]; first compound 0.04 µM)	relative viability ([4]; first compound 0.1265 µM)	relative viability ([4]; first compound 0.4 µM)	relative viability ([4]; first compound 1.265 µM)	relative viability ([4]; first compound 4 µM)
NCI-H1651	0.566	0.477	0.373	0.146	0.282	0.558	0.562	0.513	0.463	0.532	0.542	0.294	0.403	0.386	0.368	0.745	0.684	0.596	0.57	0.404
NCI-H1666	0.907	0.875	0.694	0.383	0.477	0.609	0.609	0.669	0.659	0.608	0.777	0.685	0.742	0.783	0.865	1.02	0.995	0.74	0.796	0.668
NCI-H1734	0.581	0.423	0.274	0.22	0.224	0.33	0.362	0.344	0.291	0.317	0.403	0.532	0.522	0.476	0.441	0.647	0.591	0.303	0.335	0.319
NCI-H1755	0.437	0.4	0.291	0.243	0.31	0.475	0.478	0.45	0.437	0.49	0.427	0.396	0.416	0.375	0.381	0.714	0.738	0.466	0.476	0.45
NCI-H1792	0.541	0.37	0.15	0.106	0.11	0.68	0.616	0.687	0.542	0.611	1	0.754	0.515	0.685	0.602	0.862	0.513	–	0.596	0.7
NCI-H1793	0.483	0.284	0.276	0.179	0.157	0.248	0.294	0.29	0.269	0.279	0.392	0.382	0.32	–	0.307	0.31	0.265	0.194	0.248	0.196
NCI-H1915	0.726	0.569	0.467	0.251	0.201	0.478	0.525	0.515	0.451	0.522	0.276	0.318	0.283	0.298	0.319	0.695	0.626	0.476	0.259	0.252
NCI-H1944	0.5	0.524	0.297	0.249	0.202	0.399	0.358	0.298	0.309	0.303	0.228	0.217	0.211	0.208	0.22	0.413	0.397	0.236	0.214	0.236
NCI-H1975	0.597	0.471	0.374	0.201	0.214	0.62	0.479	0.568	0.461	0.577	0.402	0.435	0.385	0.325	0.293	0.616	0.465	0.322	0.196	0.208
NCI-H1993	0.763	0.701	0.598	0.742	0.742	0.661	0.586	0.622	0.586	0.654	0.608	0.553	0.545	0.521	0.581	0.612	0.624	0.573	0.569	0.539
NCI-H2085	1.09	0.924	0.927	0.634	0.787	0.371	0.398	0.473	0.488	0.442	0.233	0.245	0.303	0.218	0.251	1.02	0.679	0.602	0.664	0.551
NCI-H2087	1.45	1.11	1.13	0.845	0.867	0.264	0.235	0.242	0.184	0.201	0.729	0.809	0.529	0.508	0.598	0.824	0.719	0.418	0.535	0.551
NCI-H2126	1.07	0.998	0.832	0.924	0.839	0.365	0.333	0.376	0.354	0.369	0.589	0.593	0.535	0.516	0.485	0.811	0.754	–	–	0.899
NCI-H2170	0.763	0.74	0.749	0.577	0.478	0.397	0.402	0.375	0.385	0.386	0.547	0.631	0.487	0.505	0.475	0.708	0.703	0.641	0.555	0.555
NCI-H2342	0.572	0.551	0.361	0.422	0.459	0.569	0.514	0.511	0.463	0.477	0.317	0.316	0.327	0.32	0.338	0.716	0.696	0.535	0.487	0.577
NCI-H2347	0.951	0.766	0.641	0.378	0.413	0.386	0.396	0.424	0.368	0.422	0.257	0.4	0.281	0.351	0.339	0.502	0.505	0.426	0.334	0.333
NCI-H2405	0.446	0.18	0.14	0.144	0.137	0.578	0.53	0.513	–	0.594	0.158	0.189	0.207	–	0.216	0.763	0.582	0.185	0.326	0.354
NCI-H3122	1.06	0.984	0.939	0.871	0.739	0.176	0.226	0.207	0.172	0.172	0.848	0.781	0.804	0.709	1.02	1.4	0.961	0.729	0.326	0.737
PC-3 [JPC-3]	0.892	0.889	0.828	0.56	0.658	–	0.53	0.56	0.565	0.543	0.978	0.935	0.889	1	0.969	0.838	0.802	0.701	0.773	0.656
PC-14	0.334	0.323	0.218	0.215	0.232	0.519	0.518	0.548	0.608	0.506	0.269	0.258	0.264	0.218	0.264	0.796	0.693	0.586	0.715	0.685
RERF-LC-KJ	0.941	0.956	0.448	0.298	0.538	1.05	1.06	1.02	0.971	0.923	0.768	0.714	0.846	0.69	0.696	0.625	0.496	0.38	0.371	0.389
SW 900	0.668	0.59	0.647	0.435	0.495	0.463	0.497	0.412	–	0.556	0.601	0.544	0.571	0.603	0.448	0.553	0.557	0.421	0.559	0.578
